Results: patent US6452052B1, “Aniline disulfide derivatives for treating allergic diseases” (Alcon Universal Ltd., priority 2000, dated 2002)
Several values for one entry are separate records, joined by “and”; a condition that tells them apart may be missing. Identical values can stand only once. Like-named read-outs stand apart in the source and are kept apart here.

Tested on: human conjunctival tissue mast cells
Test: Inhibition of anti-human IgE-induced histamine release from human conjunctival tissue mast cells (HCTMC)
Assay type: cell-based
Protocol: Methods detailing preparation of monodispersed HCTMC and mediator release studies with these cells have been described (U.S. Pat. No. 5,360,720 and Miller et al, Ocular Immunology and Inflammation, 4(1):39-49 (1996)). Briefly, human conjunctival tissue mast cells were isolated from post-mortem tissue donors obtained within 8 hours of death by various eye banks and transported in Dexsol® corneal preservation medium, or equivalent. Tissues were enzymatically digested by repeated exposure (30 min. at 37° C.) to collagenase and hyaluronidase (2× with 200 U each/gram tissue, then 2-4× with 2000 U each/gram tissue) in Tyrode's buffer containing 0.1% gelatin. (Tyrode's buffer (in mM): 137 NaCl, 2.7 KCl, 0.35 NaH2PO4, 1.8 CaCl2, 0.98 MgCl2, 11.9 NaHCO3, and 5.5 glucose). Each digestion mixture was filtered over Nitex® cloth (100 μm mesh, Tetko, Briarcliff Manor, N.Y.) and washed with an equal volume of buffer. Filtrates were centrifuged at 825×g (7 min). Pellets were resuspended in buffer then combined for enrichment over a […] Percoll® cushion. The enriched pellet was washed, resuspended in supplemented RPMI 1640 medium and incubated at 37° C. to equilibrate.
Cells were harvested from the culture plate and counted for viability (trypan blue exclusion) and mast cell number (toluidine blue O). Mast cells (5000/tube; 1 mL final volume) were challenged (37° C.) for 15 min with goat-anti-human IgE (10 μg/mL) following treatment (15 minutes; 37° C.) with test drug or Tyrode's buffer. Total and non-specific release controls were exposed to 0.1% Triton X-100 and goat IgG (10 μg/mL), respectively. The reaction was terminated by centrifugation (500×g, 4° C., 10 min). Supernatants were stored at −20° C. until analyzed for histamine content by RIA (Beckman Coulter, Chicago, Ill.).
All test drugs were made to solution immediately prior to use. Each was dissolved in DMSO at 10 mM or greater concentration and then diluted in Tyrode's buffer containing 0.1% gelatin over the concentration for evaluation.
Inhibition of histamine release was determined by direct comparison of with anti-IgE challenged mast cells using Dunnett's t-test (Dunnett, “A multiple comparison procedure for comparing treatments with a control”, J. Amer. Stat. Assoc. (1955), 50:1096-1121).

[1] = Homo sapiens, Mast cell, bracketed value = mean of the two determinations, anti-IgE challenged human conjunctival mast cells, read-out: IC50(nM), inhibition of histamine release, value in square brackets
[2] = individual determinations, mast cells 5000/tube, 15 min drug treatment at 37° C., then 15 min challenge with goat-anti-human IgE (10 μg/mL), histamine by RIA, read-out: IC50(nM), inhibition of histamine release

SMILES	IC50 (Homo sapiens, Mast cell, 0.25 h, individual determinations, mast cells 5000/tube, 15 min drug treatment at 37° C., then 15 min challenge with goat-anti-human IgE (10 μg/mL), histamine by RIA, read-out: IC50(nM), inhibition of histamine release) [nM]	IC50 [1] [nM]	IC50 [2]
CC(C)(C)C(=O)Nc1ccccc1SSc1ccccc1NC(=O)C(C)(C)C [Compound 6]	1700		
CC(=O)Nc1ccccc1SSc1ccccc1NC(C)=O [Compound 2]		481	656 nM and 306 nM
C=CCC(=O)Nc1ccccc1SSc1ccccc1NC(=O)CC=C [Compound 1]		56	85 nM and 27 nM
C=C(C)C(=O)Nc1ccccc1SSc1ccccc1NC(=O)C(=C)C [Compound 3]		491	690 nM and 292 nM
CC(O)CC(=O)Nc1ccccc1SSc1ccccc1NC(=O)CC(C)O (stereo not drawn) [Compound 4]			3180 nM and < 1000 nM
CCOC(=O)Nc1ccccc1SSc1ccccc1NC(=O)OCC [Compound 5]		1190	
